According to ChEMBL document CHEMBL4177686, “Depsidone and xanthones from Garcinia xanthochymus with hypoglycemic activity and the mechanism of promoting glucose uptake in L6 myotubes” (Bioorg Med Chem, 2017):
The source made the active and inactive calls. The rule behind the calls is not given here.

Assays:
[1] = tested on: L6; experiment: Cytotoxicity against rat L6 cells assessed as reduction in cell viability at 25 uM after 4 hrs by MTT assay; type: cell-based; conditions: l6, 4 h
[2] = tested on: L6; experiment: Increase in glucose uptake in rat L6 cells at 25 uM after 4 hrs relative to control; type: functional
[3] = tested on: L6; experiment: Activation of AMPK in rat L6 cells assessed as ACC phosphorylation at Ser 79 residues at 25 uM by Western blot analysis; type: cell-based
[4] = tested on: L6; experiment: Cytotoxicity against rat L6 cells assessed as reduction in cell viability at 1 to 100 uM after 4 hrs by MTT assay; type: cell-based; conditions: l6, 4 h
[5] = target: RAC-alpha serine/threonine-protein kinase (Rattus norvegicus) (UniProt P47196); experiment: Activation of AKT in rat L6 cells assessed as GSK3beta phosphorylation at Ser 9 residues at 12.5 to 25 uM by Western blot analysis; type: cell-based
Sequence of RAC-alpha serine/threonine-protein kinase (Rattus norvegicus) (P47196 whole entry): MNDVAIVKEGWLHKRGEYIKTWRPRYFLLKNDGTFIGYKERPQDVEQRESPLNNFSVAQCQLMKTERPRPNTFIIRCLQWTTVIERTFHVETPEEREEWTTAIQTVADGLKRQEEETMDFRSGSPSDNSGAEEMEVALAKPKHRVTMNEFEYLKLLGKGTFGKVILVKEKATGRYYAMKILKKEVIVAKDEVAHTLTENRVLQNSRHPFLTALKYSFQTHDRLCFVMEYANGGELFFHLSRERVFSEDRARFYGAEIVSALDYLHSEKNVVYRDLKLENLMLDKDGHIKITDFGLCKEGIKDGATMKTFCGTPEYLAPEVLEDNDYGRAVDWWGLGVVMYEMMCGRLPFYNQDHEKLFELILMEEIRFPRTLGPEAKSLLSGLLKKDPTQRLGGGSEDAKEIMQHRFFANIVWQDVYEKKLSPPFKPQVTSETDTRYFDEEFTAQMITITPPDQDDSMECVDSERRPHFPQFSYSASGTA

[6] = tested on: L6; experiment: Activation of PI3K/AKT/AMPK in rat L6 cells transfected with mOrange dye-based IRAP assessed as increase in GLUT4 translocation at 25 uM measured every 5 mins for 30 mins post 30 mins AMPK inhibitor compound C treatment by confocal microscopic analysis; type: cell-based
[7] = tested on: L6; experiment: Increase in glucose uptake in rat L6 cells at 25 uM treated for 4 hrs post 30 mins AMPK inhibitor compound C treatment; type: functional, cell-based
[8] = target: RAC-alpha serine/threonine-protein kinase (Rattus norvegicus) (UniProt P47196); experiment: Induction of AKT phosphorylation at Ser 473 residues in rat L6 cells by Western blot analysis; type: cell-based
[9] = tested on: L6; experiment: Increase in glucose uptake in rat L6 cells at 25 to 100 uM after 4 hrs; type: functional, cell-based
[10] = tested on: L6; experiment: Activation of PI3K/AKT/AMPK in rat L6 cells transfected with mOrange dye-based IRAP assessed as increase in GLUT4 translocation at 25 uM measured every 5 mins for 30 mins post 15 mins PI3K inhibitor wortmanin treatment by confocal microscopic analysis; type: cell-based
[11] = tested on: L6; experiment: Increase in glucose uptake in rat L6 cells at 25 uM treated for 4 hrs post 15 mins PI3K inhibitor wortmanin treatment; type: functional, cell-based
[12] = tested on: L6; experiment: Increase in glucose uptake in rat L6 cells at 25 uM after 2 to 4 hrs; type: functional, cell-based
[13] = tested on: L6; experiment: Activation of PI3K/AKT/AMPK in rat L6 cells transfected with mOrange dye-based IRAP assessed as increase in GLUT4 translocation at 25 uM measured every 5 mins for 30 mins by confocal microscopic analysis relative to basal control; type: cell-based
[14] = target: RAC-alpha serine/threonine-protein kinase (Rattus norvegicus) (UniProt P47196); experiment: Induction of AKT phosphorylation at Ser 473 residues in rat L6 cells at 12.5 to 25 uM by Western blot analysis; type: cell-based
[15] = tested on: L6; experiment: Increase in glucose uptake in rat L6 cells at 10 to 25 uM after 4 hrs; type: functional, cell-based
[16] = tested on: L6; experiment: Induction of AMPK phosphorylation at […] residues in rat L6 cells at 25 uM by Western blot analysis; type: cell-based
[17] = tested on: L6; experiment: Increase in glucose uptake in rat L6 cells at <10 uM after 4 hrs; type: functional, cell-based
[18] = tested on: L6; experiment: Induction of AMPK phosphorylation at […] residues in rat L6 cells at 12.5 to 25 uM by Western blot analysis; type: cell-based
[19] = tested on: L6; experiment: Activation of AMPK phosphorylation in rat L6 cells assessed as ACC phosphorylation at Ser 79 residues at 12.5 to 25 uM by Western blot analysis; type: cell-based
[20] = tested on: L6; experiment: Increase in glucose uptake in rat L6 cells at 100 uM after 4 hrs; type: functional, cell-based
[21] = tested on: L6; experiment: Increase in glucose uptake in rat L6 cells at 2 mM treated for 4 hrs post 30 mins AMPK inhibitor compound C treatment; type: functional, cell-based
[22] = tested on: L6; experiment: Increase in glucose uptake in rat L6 cells at 2 mM after 4 hrs relative to control; type: functional

Structure (SMILES): CC(C)=CCc1c(O)c(O)c2oc3c(CC=C(C)C)c(O)cc(O)c3c(=O)c2c1CCC(C)(C)O
- Activity [1]: Non-Toxic

Structure (SMILES): CC(C)=CCc1c(O)cc(O)c2c(=O)c3cccc(O)c3oc12
- Activity [1]: Non-Toxic

Structure (SMILES): CC1(C)C=Cc2c(cc3oc4c(O)cccc4c(=O)c3c2O)O1
- Activity [1]: Non-Toxic

Structure (SMILES): COc1c(O)c(CC=C(C)C)cc2c(=O)c3c(O)ccc(O)c3oc12
- Activity [1]: Non-Toxic

Structure (SMILES): CC(C)=CCc1c(O)c(O)c2oc3c(O)ccc(O)c3c(=O)c2c1CC=C(C)C
- Activity [1]: Non-Toxic

Structure (SMILES): CC1(C)C=Cc2c(c(O)c3oc4c(O)ccc(O)c4c(=O)c3c2O)O1
- Activity [1]: Non-Toxic
- Activity [2]: inactive

Structure (SMILES): COc1c(O)ccc2c(=O)c3c(O)ccc(OC)c3oc12
- Activity [1]: Non-Toxic

Structure (SMILES): C=CC(C)(C)c1cc(O)c2oc3c(O)cccc3c(=O)c2c1O
- Activity [3]: Active
- Activity [4]: Non-Toxic
- Activity [5]: Active
- Activity [1]: Non-Toxic
- Activity [6]: inactive
- Activity [2]: 208.4%
- Activity [7]: Active
- Activity [8]: Dose-dependent effect
- Activity [9]: inactive
- Activity [10]: inactive
- Activity [11]: inactive
- Activity [12]: Active
- Activity [13]: Active
- Activity [14]: Active
- Activity [15]: Active
- Activity [16]: Active
- Activity [17]: inactive

Structure (SMILES): CC(C)=CCC/C(C)=C/Cc1c(O)cc2c(c1O)C(=O)Oc1c(CC=C(C)C)cc(O)c(O)c1O2
- Activity [1]: Non-Toxic

Structure (SMILES): CC1(C)C=Cc2c(c(O)c3oc4ccc(O)cc4c(=O)c3c2O)O1
- Activity [1]: Non-Toxic

Structure (SMILES): COc1cc(O)c2c(=O)c3cccc(O)c3oc2c1
- Activity [1]: Non-Toxic

Structure (SMILES): C=CC(C)(C)c1cc(O)c(O)c2c(=O)c3cc(CC=C(C)C)c(O)c(O)c3oc12
- Activity [18]: Active
- Activity [4]: Non-Toxic
- Activity [5]: Active
- Activity [1]: Non-Toxic
- Activity [6]: inactive
- Activity [2]: 166.2%
- Activity [19]: Active
- Activity [7]: Active
- Activity [9]: inactive
- Activity [10]: inactive
- Activity [11]: Active
- Activity [12]: Active
- Activity [13]: Active
- Activity [14]: Active
- Activity [15]: Active
- Activity [20]: inactive
- Activity [17]: inactive

Structure (SMILES): CC(C)=CCC/C(C)=C/Cc1c(O)c(O)c2oc3cc(O)cc(O)c3c(=O)c2c1CCC(C)(C)O
- Activity [1]: Non-Toxic

Structure (SMILES): O=c1c2cccc(O)c2oc2ccc(O)c(O)c12
- Activity [1]: Non-Toxic

Structure (SMILES): COc1c2c(c(O)c3c(=O)c4c(O)ccc(O)c4oc13)C=CC(C)(C)O2
- Activity [1]: Non-Toxic

Structure (SMILES): CN(C)C(=N)NC(=N)N [METFORMIN]
- Activity [21]: Active
- Activity [22]: 167.2%

Structure (SMILES): COc1c(O)ccc2oc3c(O)cccc3c(=O)c12
- Activity [1]: Non-Toxic

Structure (SMILES): CC(C)=CCC/C(C)=C/Cc1cc2c(=O)c3c(O)cc(O)cc3oc2c(O)c1O
- Activity [1]: Non-Toxic
- Activity [2]: inactive

Structure (SMILES): CC(C)=CCc1c(O)c(O)c2oc3c4c(cc(O)c3c(=O)c2c1CC=C(C)C)OC(C)(C)C=C4
- Activity [1]: Non-Toxic
- Activity [2]: 195.28%

Structure (SMILES): CC(C)=CCc1c(O)c(O)c2oc3c(CC=C(C)C)c(O)cc(O)c3c(=O)c2c1CC=C(C)C
- Activity [1]: Non-Toxic

Structure (SMILES): CC(C)=CCc1cc(O)c(O)c2oc3cc(O)cc(O)c3c(=O)c12
- Activity [1]: Non-Toxic
- Activity [2]: inactive
